From patent US20240199613A1 (TAKEDA PHARMACEUTICAL COMPANY LIMITED, priority 2021, published 2024) come the findings set out here.

The target of assay [1] is human activated kallikrein enzyme (Homo sapiens, UniProt P03952). Nature of the assay: Inhibition of activated plasma kallikrein, fluorogenic peptide substrate (PFR-AMC) assay, 500 pM enzyme format. The format is biochemical. Particulars: 500 pM activated kallikrein, 300 uM PFR-AMC, 30 min preincubation, 10 min reaction, room temperature; read-out: Primary Dose Response Assay: Average EC50. In short, it runs like this:
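500 pM enzyme preincubated 30 min at room temperature with inhibitor in 20 mM Tris pH 7.5, 150 mM NaCl, 1 mM EDTA, 0.1% PEG-400, 0.1% Triton X-100. Reaction started with 300 uM PFR-AMC and run 10 min at room temperature. Fluorescence read at 380 nm excitation/460 nm emission.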

Another assay addresses T1, plasma kallikrein (Homo sapiens, UniProt P03952).
T1 construct: from tissue; host or cells: sodium citrate collected human plasma (78% final)
Nature of the assay: Neat human plasma assay: contact pathway-activated (FXIIa) plasma, PFR-AMC substrate. The format is biochemical. Particulars: citrated human plasma (78% final), 10 nM human FXIIa, 100 μM PFR-AMC, room temperature. In short, it runs like this:
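Compounds spiked into citrated human or rat plasma (78% final), or plasma taken from orally or IV dosed rats, activated with 10 nM human FXIIa; 100 μM PFR-AMC cleavage read at 360/480 nm for 5 min, room temperature. Rates vs concentration fit to 4-parameter IC50/IC90 equation.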

In general, EC50 refers to the midpoint of the concentration-response curve. In general, IC90 refers to the concentration needed for an effect of 90%. The low end stands for greater potency, the high end for weaker potency.

T1 sequence (P03952 391-638 limits assumed): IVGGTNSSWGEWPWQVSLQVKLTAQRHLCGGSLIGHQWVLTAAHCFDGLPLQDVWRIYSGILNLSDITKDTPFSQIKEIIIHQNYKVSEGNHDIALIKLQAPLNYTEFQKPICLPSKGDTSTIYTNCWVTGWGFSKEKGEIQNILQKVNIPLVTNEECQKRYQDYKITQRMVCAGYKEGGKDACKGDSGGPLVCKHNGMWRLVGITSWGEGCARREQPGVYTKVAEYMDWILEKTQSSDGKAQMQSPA
T1 sequence (P03952 20-390 partner limits assumed): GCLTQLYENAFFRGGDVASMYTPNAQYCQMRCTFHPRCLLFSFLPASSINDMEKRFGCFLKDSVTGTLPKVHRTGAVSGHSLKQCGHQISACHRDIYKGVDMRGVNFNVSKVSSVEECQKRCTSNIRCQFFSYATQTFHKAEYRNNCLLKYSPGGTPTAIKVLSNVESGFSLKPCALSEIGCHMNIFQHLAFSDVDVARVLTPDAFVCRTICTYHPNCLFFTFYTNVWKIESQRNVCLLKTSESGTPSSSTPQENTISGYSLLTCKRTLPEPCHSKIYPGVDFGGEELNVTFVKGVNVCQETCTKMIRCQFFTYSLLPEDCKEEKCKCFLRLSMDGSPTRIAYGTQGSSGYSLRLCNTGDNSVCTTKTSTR
Sequence of human activated kallikrein enzyme (P03952 391-638 limits assumed): as the sequence (P03952 391-638 limits assumed) above
Sequence of human activated kallikrein enzyme (P03952 20-390 partner limits assumed): as the sequence (P03952 20-390 partner limits assumed) above

For the molecule `Cc1ccnc([C@H]2C[C@@H]2c2cc(N3CC4(COC4)C3)c3ccc(OCc4cc5cc(C6CC6)cc(N6CC(=O)N(C)C6=O)n5n4)cc3n2)n1` [Example 108, 1-(5-cyclopropyl-2-(((2-((1S,2S)-2-(4-methylpyrimidin-2-yl)cyclopropyl)-4-(2-oxa-6-azaspiro[3.3]heptan-6-yl)quinolin-7-yl)oxy)methyl)pyrazolo[1,5-a]pyridin-7-yl)-3-methyl imidazolidine-2,4-dione], the EC50 in assay [1] is ≤ 1 nM. The IC90 against plasma kallikrein was ≤ 400 nM.
For the molecule `Cc1ccnc([C@H]2C[C@@H]2c2cc(-n3cncn3)c3ccc(NCc4cn5cc(C6CC6)cc(N6CC(=O)N(C)C6=O)c5n4)cc3n2)n1` (racemic) [Example 26, rac-1-(6-cyclopropyl-2-(((2-((1S*,2S*)-2-(4-methylpyrimidin-2-yl)cyclopropyl)-4-(1H-1,2,4-triazol-1-yl)quinolin-7-yl)amino)methyl)imidazo[1,2-a]pyridin-8-yl)-3-methylimidazolidine-2,4-dione], the concentration for a half-maximal effect (EC50) in assay [1] was in the range of 1 to 10 nM. In addition, the IC90 on plasma kallikrein lay in the range of 1500 to 10000 nM.
As to `CCN1CCN(c2cc(C3CC3)cn3cc(CNc4ccc5ccc([C@H]6C[C@@H]6c6nccc(C)n6)nc5c4)nc23)CC1` (racemic) [Example 74, rac-N-((6-cyclopropyl-8-(4-ethylpiperazin-1-yl)imidazo[1,2-a]pyridin-2-yl)methyl)-2-((1S*,2S*)-2-(4-methylpyrimidin-2-yl)cyclopropyl)quinolin-7-amine], in assay [1], the EC50 is ≤ 1 nM. The same molecule came in with an IC90 against plasma kallikrein of 1500 to 10000 nM.
As to `Cc1ccnc([C@H]2C[C@@H]2c2cc(N(C)CC(C)(C)O)c3ccc(NCc4cn5cc(C6CC6)cc(N6CC(=O)N(C)C6=O)c5n4)cc3n2)n1` [Example 100, 1-(6-cyclopropyl-2-(((4-((2-hydroxy-2-methylpropyl)(methyl)amino)-2-((1S,2S)-2-(4-methylpyrimidin-2-yl)cyclopropyl)quinolin-7-yl)amino)methyl)imidazo[1,2-a]pyridin-8-yl)-3-methylimidazolidine-2,4-dione], the EC50 in assay [1] was ≤ 1 nM. Besides, the IC90 against plasma kallikrein is ≤ 400 nM.
On to `Cc1ccnc([C@H]2C[C@@H]2c2cc(NCC(C)(C)O)c3ccc(NCc4cn5cc(C6CC6)cc(N6CC(=O)N(C)C6=O)c5n4)cc3n2)n1` [Example 38, 1-(6-cyclopropyl-2-(((4-((2-hydroxy-2-methylpropyl)amino)-2-((1S,2S)-2-(4-methylpyrimidin-2-yl)cyclopropyl)quinolin-7-yl)amino)methyl)imidazo[1,2-a]pyridin-8-yl)-3-methylimidazolidine-2,4-dione], for which, in assay [1], the EC50 is ≤ 1 nM. Moreover, the concentration for an effect of 90% (IC90) at plasma kallikrein is ≤ 400 nM.
For `COc1cc([C@H]2C[C@@H]2c2nccc(C)n2)nc2cc(N3C[C@@H](O)C[C@@H]3c3cn4cc(C5CC5)cc(N5CC(=O)N(C)C5=O)c4n3)ccc12` (relative stereo) [Example 67, rac-1-(6-cyclopropyl-2-((2R,4S)-4-hydroxy-1-(4-methoxy-2-((1S*,2S*)-2-(4-methylpyrimidin-2-yl)cyclopropyl)quinolin-7-yl)pyrrolidin-2-yl)imidazo[1,2-a]pyridin-8-yl)-3-methylimidazolidine-2,4-dione], the EC50 in assay [1] lay within 1 to 10 nM. In addition, the IC90 against plasma kallikrein is 400 to 1500 nM.
With `Cc1ccnc([C@H]2C[C@@H]2c2ccc3c(C#N)cc(NCc4cn5cc(C6CC6)cc(N6CC(=O)N(C)C6=O)c5n4)cc3n2)n1` (racemic) [Example 82, rac-7-(((6-cyclopropyl-8-(3-methyl-2,4-dioxoimidazolidin-1-yl)imidazo[1,2-a]pyridin-2-yl)methyl)amino)-2-((1S*,2S*)-2-(4-methylpyrimidin-2-yl)cyclopropyl)quinoline-5-carbonitrile], the EC50 in assay [1] was 1 to 10 nM. The IC90 against plasma kallikrein was in the range of 1500 to 10000 nM.
As for `Cc1ccnc([C@H]2C[C@@H]2c2cc(N3CC4(COC4)C3)c3ccc(NCc4cc5cc(C6CC6)cc(N6CC(=O)N(C)C6=O)n5n4)cc3n2)n1` [Example 107, 1-(5-cyclopropyl-2-(((2-((1S,2S)-2-(4-methylpyrimidin-2-yl)cyclopropyl)-4-(2-oxa-6-azaspiro[3.3]heptan-6-yl)quinolin-7-yl)amino)methyl)pyrazolo[1,5-a]pyridin-7-yl)-3-methylimidazolidine-2,4-dione], the EC50 in assay [1] is ≤ 1 nM. In addition, the concentration for an effect of 90% (IC90) against plasma kallikrein was ≤ 400 nM.
On to `Cc1ccnc([C@H]2C[C@@H]2C2=NS(=O)(=O)c3cc(Cl)c(NCc4cn5cc(C6CC6)ccc5n4)cc3N2)n1` (racemic) [Example 89, rac-7-chloro-6-(((6-cyclopropylimidazo[1,2-a]pyridin-2-yl)methyl)amino)-3-((1S*,2S*)-2-(4-methylpyrimidin-2-yl)cyclopropyl)-4H-benzo[e][1,2,4]thiadiazine 1,1-dioxide], for which the EC50 in assay [1] is ≤ 1 nM. The IC90 at plasma kallikrein was 1500 to 10000 nM.
As to `COc1cc(NCc2cn3cc(C)cc(N4CC(=O)N(C)C4=O)c3n2)cc2nc([C@H]3C[C@@H]3c3nccc(C)n3)ccc12` (racemic) [Example 104, rac-1-(2-(((5-methoxy-2-((1S*,2S*)-2-(4-methylpyrimidin-2-yl)cyclopropyl)quinolin-7-yl)amino)methyl)-6-methylimidazo[1,2-a]pyridin-8-yl)-3-methylimidazolidine-2,4-dione], the EC50 in assay [1] lay within 1 to 10 nM. Moreover, the concentration for an effect of 90% (IC90) against plasma kallikrein lay within 400 to 1500 nM.
Taken in the same sequence, the figures for `COc1cc(NCc2cn3cc(C4CC4)cc(N4CC(=O)N(C)C4=O)c3n2)cc2nc([C@H]3C[C@@H]3c3nccc(C)n3)ccc12` [Example 28, 1-(6-cyclopropyl-2-(((5-methoxy-2-((1S,2S)-2-(4-methylpyrimidin-2-yl)cyclopropyl)quinolin-7-yl)amino)methyl)imidazo[1,2-a]pyridin-8-yl)-3-methylimidazolidine-2,4-dione] were ≤ 1 nM and 400 to 1500 nM.
For `Cc1ccnc([C@H]2C[C@@H]2c2cc(OCCO)c3ccc(NCc4cn5cc(C6CC6)cc(N6CC(=O)N(C)C6=O)c5n4)cc3n2)n1` (racemic) [Example 69, rac-1-(6-cyclopropyl-2-(((4-(2-hydroxyethoxy)-2-((1S*,2S*)-2-(4-methylpyrimidin-2-yl)cyclopropyl)quinolin-7-yl)amino)methyl)imidazo[1,2-a]pyridin-8-yl)-3-methylimidazolidine-2,4-dione], in that order: ≤ 1 nM and 400 to 1500 nM.
